The text below walks through data of patent publication US20050148786A1, “Diimmonium compound and use thereof” (Nippon Kayaku Kabushiki Kaisha, priority 2003, published 2005).

SMILES strings stand for the structures.

The nature of data set [1]: Comparative test of molar absorption coefficient measurement. In kind it is physicochemical. The note with it: in dichloromethane; in M-1·cm-1. An excerpt: The compounds obtained in the above-mentioned Examples were subjected to the measurement of molar absorption coefficient (ε) in dichloromethane.
Data set [2] is described as follows: maximum absorption wavelength (λmax) in dichloromethane. In kind it is physicochemical. An excerpt: λmax: 1,102 nm (in dichloromethane);
A short description of data set [3]: thermal decomposition point (weight decrease starting point) by TG-DTA. The note with it: measured by TG-DTA. In kind it is physicochemical. The procedure: the melting point: around 170° C.; and the thermal decomposition point (the weight decrease starting point): around 280° C. (measured by TG-DTA)
Data set [4] in a line: Stability test of moisture-and-heat resistance of near-IR absorption filter. Type of data set: physicochemical. The settings on record: for b* value, difference: 14-day after minus initial, 60° C. and 95% RH; for b* value, 14-day after / b* value, initial period: acrylic resin filter; for b* value, 14-day after: 14 days at 60° C. and 95% RH; for b* value, initial period: before test. On the procedure: (§1) 1.2 part of each compound obtained in each Example was dissolved in 18.8 part of MEK. 80 part of a resin solution obtained by dissolving 25 part of an acrylic resin (Dianal BR-80, manufactured by Mitsubishi Rayon Co., Ltd.) in 75 part of MEK was mixed with the obtained solution to obtain a solution for coating. The solution was applied to form a film with a thickness of 2 to 4 μm on a polyester film and dried at 80° C. to obtain a near-IR absorption filter of the invention.
The obtained near-IR absorption filter was subjected to a stability test of moisture-and-heat resistance for 14 days in a constant temperature and constant humidity apparatus under 60° C. and 95% RH conditions. The filter was subjected to color measurement by a spectrophotometer before and after the test to calculate L*, a*, and b* values. If the + value of b* value is high, it means that the hue is yellowish and if b* value is close to 0, it means that the yellowish degree is low and filter is desirable and therefore, the hue evaluation and stability evaluation were done based on the b* value and its change.

A short description of data set [5]: Comparative test of solubility measurement. The note with it: room temperature; for solubility in MEK: methyl ethyl ketone.
Procedure: The solubility was measured for the compounds obtained in the above-mentioned Examples at a room temperature in methyl ethyl ketone (MEK) and toluene.
Data set [6] in a line: Stability test of heat resistance of near-IR absorption filter. Type of data set: physicochemical. The settings on record: for b* value, initial period / b* value, 14-day after: acrylic resin filter; for b* value, initial period: before test; for b* value, 14-day after / b* value, difference: oven at 80° C.; for b* value, 14-day after: head prints 14-day, text 21 days; for b* value, difference: after minus initial. The procedure:
as §1
[…] After that, the filters were subjected to color measurement by a spectrophotometer to calculate L*, a*, and b* values and their stability was evaluated based on the change in b* values. If the b* is low, that is, the absorption in visible ray region is low, the near-IR absorption filter is preferable.

Regarding `CCN(CC)c1ccc([N+](=C2C=CC(=[N+](c3ccc(N(CC)CC)cc3)c3ccc(N(CC)CC)cc3)C=C2)c2ccc(N(CC)CC)cc2)cc1.O=S(=O)([N-]S(=O)(=O)C(F)(F)F)C(F)(F)F.O=S(=O)([N-]S(=O)(=O)C(F)(F)F)C(F)(F)F` [Compound No. 12], the “molar absorption coefficient (ε)” value in data set [1] is recorded as 96,000. In data set [2], the λmax was 1,084 nm. The “thermal decomposition point (the weight decrease starting point)” value in data set [3] was “around 278 °C”.

Turning to `CCCCN(CCCC)c1ccc([N+](=C2C=CC(=[N+](c3ccc(N(CCCC)CCCC)cc3)c3ccc(N(CCCC)CCCC)cc3)C=C2)c2ccc(N(CCCC)CCCC)cc2)cc1.F[B-](F)(F)F.F[B-](F)(F)F` [Compound No. 156, borofluoride salt of N,N,N′,N′-tetrakis[p-di(n-butyl)aminophenyl]phenylene diimmonium, reference compound], in data set [4], the “b* value, difference” value is reported as 10.8; the “b* value, 14-day after” value came to 14.3; the “b* value, initial period” value stood at 3.5.

`CCCCN(CCCC)c1ccc([N+](=C2C=CC(=[N+](c3ccc(N(CCCC)CCCC)cc3)c3ccc(N(CCCC)CCCC)cc3)C=C2)c2ccc(N(CCCC)CCCC)cc2)cc1.O=S(=O)([O-])c1ccc2c(S(=O)(=O)[O-])cccc2c1O` [Compound No. 152, 1-hydroxy-2,5-naphthalenedisulfonic acid salt of N,N,N′,N′-tetrakis[p-di(n-butyl)aminophenyl]phenylenediimmonium, reference compound]: the “molar absorption coefficient (ε)” value in data set [1] is 24,500.

Turning to `N#CCCCN(CCCC#N)c1ccc([N+](=C2C=CC(=[N+](c3ccc(N(CCCC#N)CCCC#N)cc3)c3ccc(N(CCCC#N)CCCC#N)cc3)C=C2)c2ccc(N(CCCC#N)CCCC#N)cc2)cc1.[F][Sb-]([F])([F])([F])([F])[F].[F][Sb-]([F])([F])([F])([F])[F]` [Compound No. 154, hexafluoroantimonate of N,N,N′,N′-tetrakis[p-di(3-cyanopropyl)aminophenyl]phenylene diimmonium, reference compound], in data set [5], the “solubility in MEK” value is recorded as “insoluble” and the solubility in toluene entry is reported as “insoluble”.

In the case of `CC(C)CN(CC(C)C)c1ccc([N+](=C2C=CC(=[N+](c3ccc(N(CC(C)C)CC(C)C)cc3)c3ccc(N(CC(C)C)CC(C)C)cc3)C=C2)c2ccc(N(CC(C)C)CC(C)C)cc2)cc1` [Compound No. 2], the “molar absorption coefficient (ε)” value in data set [1] is listed as 109,000. Further, in data set [4], the “b* value, difference” value was determined as 1.9; the “b* value, 14-day after” value is 4.1; the “b* value, initial period” value worked out at 2.2. In addition, in data set [2], the λmax was 1,104 nm. Also, in data set [6], the “b* value, initial period” value turned out to be 2.2; the “b* value, 14-day after” value was 3.7; the “b* value, difference” value amounted to 1.5. The “thermal decomposition point (the weight decrease starting point)” value in data set [3] was “around 282 °C”.

Take `CCCCN(CCCC#N)c1ccc([N+](=C2C=CC(=[N+](c3ccc(N(CCCC)CCCC#N)cc3)c3ccc(N(CCCC)CCCC#N)cc3)C=C2)c2ccc(N(CCCC)CCCC#N)cc2)cc1.O=S(=O)([N-]S(=O)(=O)C(F)(F)F)C(F)(F)F.O=S(=O)([N-]S(=O)(=O)C(F)(F)F)C(F)(F)F` [Compound No. 35]: the λmax in data set [2] was 1,090 nm. For the same compound, in data set [3], the “thermal decomposition point (the weight decrease starting point)” value is “around 256 °C”.

With `CCCCN(CCCC)c1ccc([N+](=C2C=CC(=[N+](c3ccc(N(CCCC)CCCC)cc3)c3ccc(N(CCCC)CCCC)cc3)C=C2)c2ccc(N(CCCC)CCCC)cc2)cc1.F[P-](F)(F)(F)(F)F.F[P-](F)(F)(F)(F)F` [Compound No. 155, hexafluorophosphate of N,N,N′,N′-tetrakis[p-di(n-butyl)aminophenyl]-p-phenylenediimmonium, reference compound], in data set [4], the “b* value, difference” value is 6.1; the “b* value, 14-day after” value worked out at 9.0; the “b* value, initial period” value is 2.9.

On to `CC(C)CCN(CCC(C)C)c1ccc([N+](=C2C=CC(=[N+](c3ccc(N(CCC(C)C)CCC(C)C)cc3)c3ccc(N(CCC(C)C)CCC(C)C)cc3)C=C2)c2ccc(N(CCC(C)C)CCC(C)C)cc2)cc1.O=S(=O)([N-]S(=O)(=O)C(F)(F)F)C(F)(F)F.O=S(=O)([N-]S(=O)(=O)C(F)(F)F)C(F)(F)F` [Compound No. 4], for which the “molar absorption coefficient (ε)” value in data set [1] was 110,000. In data set [4], the “b* value, difference” value was 2.1; the “b* value, 14-day after” value is 4.3; the “b* value, initial period” value is recorded as 2.2. The λmax in data set [2] was 1,102 nm. Also, in data set [5], the “solubility in MEK” value is 10% and the solubility in toluene came out at 0.1%. Also, in data set [6], the “b* value, initial period” value is recorded as 2.4; the “b* value, 14-day after” value is on record as 3.8; the “b* value, difference” value is listed as 1.6. Besides, the “thermal decomposition point (the weight decrease starting point)” value in data set [3] was “around 280 °C”.

With `CCCCN(CCCC)c1ccc([N+](=C2C=CC(=[N+](c3ccc(N(CCCC)CCCC)cc3)c3ccc(N(CCCC)CCCC)cc3)C=C2)c2ccc(N(CCCC)CCCC)cc2)cc1` [Compound No. 1], the “molar absorption coefficient (ε)” value in data set [1] is on record as 108,000. In data set [4], the “b* value, difference” value is recorded as 1.8; the “b* value, 14-day after” value worked out at 5.3; the “b* value, initial period” value came to 3.5. In addition, in data set [2], the λmax is 1,102 nm. In data set [6], the “b* value, initial period” value is listed as 3.5; the “b* value, 14-day after” value is on record as 5.3; the “b* value, difference” value worked out at 1.8. In data set [3], the “thermal decomposition point (the weight decrease starting point)” value is “around 280 °C”.

In the case of `CCCCN(CCCC)c1ccc([N+](=C2C=CC(=[N+](c3ccc(N(CCCC)CCCC)cc3)c3ccc(N(CCCC)CCCC)cc3)C=C2)c2ccc(N(CCCC)CCCC)cc2)cc1.O=S(=O)([O-])c1cccc2c(S(=O)(=O)[O-])cccc12` [Compound No. 151, 1,5-naphthalenedisulfonic acid salt of N,N,N′,N′-tetrakis[p-di(n-butyl)aminophenyl]phenylenediimmonium, reference compound], the “molar absorption coefficient (ε)” value in data set [1] is recorded as 82,000.

As for `N#CCCCCN(CCCCC#N)c1ccc([N+](=C2C=CC(=[N+](c3ccc(N(CCCCC#N)CCCCC#N)cc3)c3ccc(N(CCCCC#N)CCCCC#N)cc3)C=C2)c2ccc(N(CCCCC#N)CCCCC#N)cc2)cc1.O=S(=O)([N-]S(=O)(=O)C(F)(F)F)C(F)(F)F.O=S(=O)([N-]S(=O)(=O)C(F)(F)F)C(F)(F)F` [Compound No. 9], the “molar absorption coefficient (ε)” value in data set [1] is listed as 109,000. In addition, in data set [4], the “b* value, difference” value is given as 1.9; the “b* value, 14-day after” value came out at 4.3; the “b* value, initial period” value worked out at 2.4. Moreover, in data set [2], the λmax is reported as 1,086 nm. In data set [3], the “thermal decomposition point (the weight decrease starting point)” value was “around 277 °C”.
